Assay results as given in paper PMC7181131, “N-Pyrazinoyl Substituted Amino Acids as Potential Antimycobacterial Agents—the Synthesis and Biological Evaluation of Enantiomers” (Molecules, 2020).
≈ marks a conversion by molar mass, not a printed value. Read-outs that look alike come from different tables or passages of the source.

Experiments:
[1] = system: HepG2 cell line; assay: HepG2 cytotoxicity, CellTiter 96 (MTS) assay; assay type: cell-based, human; settings: Homo sapiens, read-out: HepG2 IC50
[2] = system: Aspergillus fumigatus ATCC 204305; assay: Antifungal microdilution broth method, AF; assay type: cell-based; settings: ATCC204305, 48 h, read-out: MIC AF
[3] = system: Staphylococcus epidermidis CCM 4418 (ATCC 12228); assay: Antibacterial microdilution broth method, SE; assay type: cell-based; settings: 24 h, read-out: MIC SE
[4] = system: Mycobacterium tuberculosis H37Rv CNCTC My 331/88 (ATCC 27294); assay: Antimycobacterial pre-screening, microdilution broth, Mtb H37Rv; assay type: cell-based; settings: Middlebrook 7H9 broth of declared pH 6.6
[5] = system: M. kansasii CNCTC My 235/80 (ATCC 12478); assay: Antimycobacterial pre-screening, microdilution broth, M. kansasii; assay type: cell-based; settings: Mycobacterium kansasii, ATCC12478; Middlebrook 7H9 broth of declared pH 6.6
[6] = system: M. avium ssp. avium CNCTC My 80/72 (ATCC 15769); assay: Antimycobacterial pre-screening, microdilution broth, M. avium; assay type: cell-based; settings: Mycobacterium avium, ATCC15769; Middlebrook 7H9 broth of declared pH 6.6
[7] = system: Mtb H37Ra ITM-M006710 (ATCC 9431); assay: Microplate Alamar Blue Assay (MABA) microdilution, Mtb H37Ra; assay type: cell-based, Mycobacterium tuberculosis; settings: Mycobacterium tuberculosis
[8] = system: Lichtheimia corymbifera CCM 8077; assay: Antifungal microdilution broth method, LC; assay type: cell-based; settings: CCM8077, 48 h, read-out: MIC LC
[9] = system: Candida tropicalis CCM 8264 (ATCC 750); assay: Antifungal microdilution broth method, CT; assay type: cell-based; settings: 24 h, read-out: MIC CT
[10] = system: Candida parapsilosis CCM 8260 (ATCC 22019); assay: Antifungal microdilution broth method, CP; assay type: cell-based; settings: Lodderomyces parapsilosis, 24 h, read-out: MIC CP
[11] = system: Trichophyton interdigitale CCM 8377 (ATCC 9533); assay: Antifungal microdilution broth method, TI; assay type: cell-based; settings: 48 h, read-out: MIC TI
[12] = system: Candida krusei CCM 8271 (ATCC 6258); assay: Antifungal microdilution broth method, CK; assay type: cell-based; settings: Pichia kudriavzevii, 24 h, read-out: MIC CK
[13] = system: M. smegmatis DSM 43465 (ATCC 607); assay: Microplate Alamar Blue Assay (MABA) microdilution, M. smegmatis; assay type: cell-based, Mycobacterium smegmatis
[14] = system: Candida albicans CCM 8320 (ATCC 24433); assay: Antifungal microdilution broth method, CA; assay type: cell-based; settings: 24 h, read-out: MIC CA
[15] = system: Aspergillus flavus CCM 8363; assay: Antifungal microdilution broth method, AFla; assay type: cell-based; settings: CCM8363, read after 48 h (filamentous fungi), read-out: MIC AFla
[16] = system: Klebsiella pneumoniae CCM 4415 (ATCC 10031); assay: Antibacterial microdilution broth method, KP; settings: read after 24 h of incubation
[17] = system: Mycobacterium aurum DSM 43999 (ATCC 23366); assay: Microplate Alamar Blue Assay (MABA) microdilution, M. aurum; assay type: cell-based
[18] = Solubility in the cultivation medium of the antibacterial and antifungal screening; settings: for solubility in the cultivation medium: antibacterial testing medium; for solubility in the medium: antifungal testing medium
[19] = system: Mycobacterium tuberculosis H37Rv CNCTC My 331/88 (ATCC 27294); parameters: method as in doi:10.3184/030823407×200001; settings: study by Pinheiro et al. ref 32; cited from earlier work
[20] = pH 6.6, read-out: MIC Mtb H37Ra
[21] = pH 6, calculated from µg/mL, read-out: MIC Mtb H37Ra
[22] = Mycolicibacterium smegmatis, pH 6, read-out: MIC M. smegmatis µg/mL
[23] = Mycolicibacterium smegmatis, pH 6.6, read-out: MIC M. smegmatis
[24] = Mycolicibacterium aurum, pH 6, read-out: MIC M. aurum µg/mL
[25] = Mycolicibacterium aurum, pH 6.6, read-out: MIC M. aurum
[26] = Mycolicibacterium smegmatis, pH 6; read-out: MIC M. smegmatis
[27] = Mycolicibacterium aurum, pH 6; read-out: MIC M. aurum
[28] = Mycolicibacterium smegmatis, pH 6.6; read-out: MIC M. smegmatis
[29] = Mycolicibacterium aurum, pH 6.6; read-out: MIC M. aurum

| Structure (SMILES) | MIC [2] | MIC [3] | MIC [4] | MIC [5] | MIC [6] | MIC ([7]; pH 6) | MIC ([7]; pH 6, read-out: MIC Mtb H37Ra) | MIC [7, 20] | MIC [7, 21] | MIC [8] | MIC [9] | MIC [10] | MIC [11] | MIC [12] | MIC [13, 22] | MIC [13, 23] | MIC [14] | MIC [15] | MIC [17, 24] | MIC [17, 25] | other results |
| --- | --- | --- | --- | --- | --- | --- | --- | --- | --- | --- | --- | --- | --- | --- | --- | --- | --- | --- | --- | --- | --- |
| CCOC(=O)[C@H](CC(C)C)NC(=O)c1cnccn1 (racemic) [PC-DL-Leu-Et, ethyl (pyrazine-2-carbonyl)leucinate] | > 500 µM | > 500 µM | 100 µg/mL (≈ 377 µM) | > 100 µg/mL | > 100 µg/mL | 15.6 µg/mL | 15.6 µg/mL | 250 µg/mL | 58.9 µM | > 500 µM | > 500 µM | > 500 µM | > 500 µM | > 500 µM | ≥ 125 µg/mL | 250 µg/mL (≈ 942 µM) | > 500 µM | > 500 µM | ≥ 125 µg/mL | 250 µg/mL (≈ 942 µM) | IC50 ([1]; HepG2, 24 h incubation, CellTiter 96): 788 µM; MIC ([7]; pH 6, Table 4, read-out: Mtb pH 6 MIC): 59 µM; MIC KP [16]: > 500 µM |
| CCOC(=O)[C@@H](NC(=O)c1cnccn1)C(C)C (racemic) [PC-DL-Val-Et, ethyl (pyrazine-2-carbonyl)valinate] | > 500 µM | > 500 µM | > 100 µg/mL | > 100 µg/mL | > 100 µg/mL | ≥ 125 µg/mL | ≥ 125 µg/mL | ≥ 500 µg/mL | ≥ 497 µM | > 500 µM | > 500 µM | > 500 µM | > 500 µM | > 500 µM | ≥ 125 µg/mL | 250 µg/mL (≈ 995 µM) | > 500 µM | > 500 µM | ≥ 125 µg/mL | ≥ 500 µg/mL | MIC KP [16]: > 500 µM |
| C[C@@H](NC(=O)c1cnccn1)C(=O)O [PC-D-Ala, (pyrazine-2-carbonyl)-D-alanine] | > 500 µM | > 500 µM | > 100 µg/mL | > 100 µg/mL | > 100 µg/mL | ≥ 125 µg/mL | ≥ 125 µg/mL | ≥ 500 µg/mL | ≥ 640 µM | > 500 µM | > 500 µM | > 500 µM | > 500 µM | > 500 µM | ≥ 125 µg/mL | ≥ 500 µg/mL | > 500 µM | > 500 µM | 62.5 µg/mL (≈ 320 µM) | ≥ 500 µg/mL | MIC KP [16]: > 500 µM |
| COC(=O)C[C@@H](NC(=O)c1cnccn1)C(=O)OC [PC-D-Asp-diMe, dimethyl (pyrazine-2-carbonyl)-D-aspartate] |  |  |  |  |  | ≥ 125 µg/mL | ≥ 125 µg/mL | ≥ 125 µg/mL | ≥ 468 µM |  |  |  |  |  |  | ≥ 125 µg/mL |  |  |  | ≥ 125 µg/mL | solubility in the cultivation medium [18]: insoluble; solubility in the medium [18]: insoluble; MIC [13, 26]: ≥ 125 µg/mL; MIC [17, 27]: ≥ 125 µg/mL |
| CC[C@@H](C)[C@@H](NC(=O)c1cnccn1)C(=O)OC [PC-D-Ile-Me, methyl (pyrazine-2-carbonyl)-D-isoleucinate] |  |  |  |  |  | 250 µg/mL | 250 µg/mL | ≥ 500 µg/mL | 995 µM |  |  |  |  |  |  |  |  |  |  |  | solubility in the cultivation medium [18]: insoluble; solubility in the medium [18]: insoluble; MIC [13, 26]: 250 µg/mL (≈ 995 µM); MIC [13, 28]: ≥ 500 µg/mL; MIC [17, 27]: 250 µg/mL (≈ 995 µM); MIC [17, 29]: ≥ 500 µg/mL |
| COC(=O)[C@@H](CC(C)C)NC(=O)c1cnccn1 [PC-D-Leu-Me, methyl (pyrazine-2-carbonyl)-D-leucinate] | > 500 µM | > 500 µM | > 100 µg/mL | > 100 µg/mL | > 100 µg/mL | ≥ 125 µg/mL | ≥ 125 µg/mL | ≥ 500 µg/mL | ≥ 497 µM | > 500 µM | > 500 µM | > 500 µM | > 500 µM | > 500 µM | ≥ 125 µg/mL | 250 µg/mL (≈ 995 µM) | > 500 µM | > 500 µM | ≥ 125 µg/mL | ≥ 500 µg/mL | MIC KP [16]: > 500 µM |
| O=C(N[C@H](CO)C(=O)O)c1cnccn1 [PC-D-Ser, (pyrazine-2-carbonyl)-D-serine] | > 500 µM | > 500 µM | > 100 µg/mL | > 100 µg/mL | > 100 µg/mL | ≥ 250 µg/mL | ≥ 250 µg/mL | ≥ 500 µg/mL | ≥ 1180 µM | > 500 µM | > 500 µM | > 500 µM | 500 µM (≈ 106 µg/mL) | > 500 µM | 125 µg/mL (≈ 592 µM) | ≥ 500 µg/mL | > 500 µM | > 500 µM | 62.5 µg/mL (≈ 296 µM) | ≥ 500 µg/mL | MIC KP [16]: > 500 µM |
| O=C(O)CNC(=O)c1cnccn1 [PC-Gly, (pyrazine-2-carbonyl)glycine] | > 500 µM | > 500 µM | > 100 µg/mL | > 100 µg/mL | > 100 µg/mL | ≥ 125 µg/mL | ≥ 125 µg/mL | ≥ 500 µg/mL | ≥ 690 µM | > 500 µM | > 500 µM | > 500 µM | > 500 µM | 500 µM (≈ 90.6 µg/mL) | ≥ 125 µg/mL | ≥ 500 µg/mL | > 500 µM | > 500 µM | ≥ 125 µg/mL | ≥ 500 µg/mL | MIC KP [16]: > 500 µM |
| CC[C@H](C)[C@H](NC(=O)c1cnccn1)C(=O)OC [PC-L-Ile-Me, methyl (pyrazine-2-carbonyl)-L-isoleucinate] |  |  |  |  |  | 250 µg/mL | 250 µg/mL | ≥ 500 µg/mL | 995 µM |  |  |  |  |  |  |  |  |  |  |  | solubility in the cultivation medium [18]: insoluble; solubility in the medium [18]: insoluble; MIC [13, 26]: ≥ 500 µg/mL; MIC [13, 28]: ≥ 500 µg/mL; MIC [17, 27]: ≥ 500 µg/mL; MIC [17, 29]: ≥ 500 µg/mL |
| COC(=O)[C@H](CC(C)C)NC(=O)c1cnccn1 [PC-L-Leu-Me, methyl (pyrazine-2-carbonyl)-L-leucinate] | > 500 µM | 500 µM (≈ 126 µg/mL) | 100 µg/mL (≈ 398 µM) | > 100 µg/mL | > 100 µg/mL | ≥ 125 µg/mL | ≥ 125 µg/mL | 250 µg/mL | ≥ 497 µM | > 500 µM | > 500 µM | > 500 µM | > 500 µM | > 500 µM | ≥ 125 µg/mL | 250 µg/mL (≈ 995 µM) | > 500 µM | > 500 µM | ≥ 125 µg/mL | ≥ 500 µg/mL | MIC KP [16]: > 500 µM |
| C=C(NC(=O)c1cnccn1)C(=O)OC [PC-MeAcr, methyl 2-(pyrazine-2-carboxamido)acrylate] | > 125 µM | > 125 µM | 50 µg/mL (≈ 241 µM) | 100 µg/mL (≈ 483 µM) | > 100 µg/mL | 62.5 µg/mL | 62.5 µg/mL | 15.6 µg/mL | 302 µM | > 125 µM | > 125 µM | > 125 µM | > 125 µM | > 125 µM | ≥ 125 µg/mL | 31.2 µg/mL (≈ 151 µM) | > 125 µM | > 125 µM | 62.5 µg/mL (≈ 302 µM) | 62.5 µg/mL (≈ 302 µM) | IC50 ([1]; HepG2, 24 h): > 500 µM; MIC ([7]; pH 6, read-out: Mtb pH 6 MIC): 302 µM; MIC on Mtb H37Rv [19]: 50 µg/mL (≈ 241 µM) |
